The subject of this test is IFN-a/Jak1Tyk2. The test can be described thus: Co-stimulation assay in lysed whole blood: IFNa (JAK1/TYK2) stimulated STAT1 phosphorylation. It counts as cell-based. The following applies: lysed human whole blood, IFNa 100 ng/mL (co-stimulated with GM-CSF 10 ng/mL), pSTAT1 by flow cytometry. The procedure: Example 4: Co-Stimulation Assay in Lysed Whole Blood; JAK2: GM-CSF Stimulated STATS Phosphorylation and JAK1/TYK2 Stimulated STAT1 Phosphorylation Assay
Human Blood Lysis Using Abcam's RBC Lysis Buffer
Dilute RBC lysis buffer to 1× in distilled water. Add 2 mL blood to 38 mL of 1×RBC-lysis buffer. Incubate for 15 mins at RT, in dark. Spin at 300 g, 5 mins, to collect the pellet. Re-lyse if necessary. Re-suspend pellet in 5 mL of cRPMI.
Compound and Cytokine Treatment
Aliquot 80 μL of lysed human blood in to wells of 96 deep-well plate. Add 10 μl of (10× conc.) of different concentrations of compounds to all wells except controls (unstained and unstimulated) and mix it with the help of 100 uL multichannel. Add 10 uL of RPMI media in controls. For dilution of compounds and dilution range please refer Appendix. Incubate on water bath or CO2 incubator for 1 hour at 37° C. Add 10 μL of (10× conc.) of cytokine mix (GM-CSF and IFNa) (final conc. 10 ng/mL of GM-CSF and 100 ng/mL of IFNa) to each well except unstimulated and unstained controls and incubate further for 20 minutes on water bath at 37° C.
Add 900 μL of prewarmed 1× Fix/Lyse solution (Appendix) and mix it properly using 1000 μl multichannel, incubate further on water bath at 37° C. for 10 minutes (which includes time of addition). Centrifuge at 800× g for 5 minutes at 40° C.; remove 900 uL of supernatant and add 900 μL of 1×PBS. Centrifuge at 800× g for 5 minutes at 40° C., remove 900 μL of supernatant. Wash one more time with 900 μL of PBS (optional) and resuspend pellets in 100 uL of PBS.
Disrupt the pellet by gentle tapping and resuspend in 1000 μL of BD Phosflow Perm Buffer III and incubate plate on ice for 30 minutes. Centrifuge plate at 800× g for 5 minutes at 40° C. Wash two more times with 1000 μL of BD Pharmingen Stain Buffer.
Disrupt the pellet by gentle tapping. Resuspend pellets in 100 uL of Stain Buffer and add 5 μL of pSTAT5_AF488 Ab and 5 uL of pSTAT1_PE in all wells except unstained control and mix properly using 200 μl multichannel, incubate overnight at […]. Add 900 μL of wash buffer and centrifuge at 1800 rpm for 3 minutes at […]. Wash one more time with 1000 μL of BD Pharmingen Stain Buffer. Finally resuspend the pellet in 300 uL of BD Pharmingen Stain Buffer. Transfer the cells to 96-well v-bottom plate and acquire the cells in Beckman Coulter CytExpert. Acquiring cells in Flow Cytometer: Keep the threshold value to 250 and cell concentration should not exceed 100-500 cells/μL. Acquire at least 5,000-10,000 cells.
RPMI 1640 Complete Medium: RPMI 1640 media+10% FBS.
Cytokine dilution: 1) GM-CSF Stock at 100 ug/mL. Prepare an intermediate dilution of 1 ug/mL by adding 2 uL of stock into 198 uL of cRPMI. Further dilute to 100 ng/mL by adding 100 uL of the intermediate stock to 900 uL of cRPMI. 2) IFNa Stock at 200 ug/mL. Dilute IFNa stock 1:200 by adding 5 uL of stock into the 1000 uL of 100 ng/mL GM-CSF working stock as above to give a combined working stock of 1000 ng/mL of IFNa and 100 ng/mL GM-CSF (lox). Keep it on ice until used.
Lyse/Fix buffer preparation: Dilute 5× Lyse/Fix buffer to 1× using MQ water and keep at 37° C. until used.
BD Phosflow perm buffer III: Keep on ice/fridge.

On to `CNc1cc2nc3c(cnn13)C(=O)NC(C)COc1ccccc1N2` (stereo not drawn) [Compound 36, (1^3E,1^4E)-6-methyl-1^7-(methylamino)-4-oxa-2,7-diaza-1(5,3)-pyrazolo[1,5-a]pyrimidina-3(1,2)-benzenacyclooctaphan-8-one], for which the half-maximal inhibitory concentration (IC50) was 100 to 1000 nM.

As to `CNc1cc2nc3c(cnn13)C(=O)NCC(C)Oc1cccc(c1)N2` (stereo not drawn) [Compound 37, (1^3E,1^4E)-5-methyl-1^7-(methylamino)-4-oxa-2,7-diaza-1(5,3)-pyrazolo[1,5-a]pyrimidina-3(1,3)-benzenacyclooctaphan-8-one], the half-maximal inhibitory concentration (IC50) was in the range of 1000 to 10000 nM.

As to `CNc1cc2nc3c(cnn13)C(=O)NCCCc1cc(O)cc(c1)N2` [Compound 38, (1^3E,1^4E)-3^5-hydroxy-1^7-(methylamino)-2,7-diaza-1(5,3)-pyrazolo[1,5-a]pyrimidina-3(1,3)-benzenacyclooctaphan-8-one], the half-inhibitory concentration (IC50) was 1000 to 10000 nM.

As to `CNc1cc2nc3c(cnn13)C(=O)NCCOc1cc(c(F)cc1C)N2` [Compound 39, (1^3E,1^4E)-3^6-fluoro-34-methyl-1^7-(methylamino)-4-oxa-2,7-diaza-1(5,3)-pyrazolo[1,5-a]pyrimidina-3(1,3)-benzenacyclooctaphan-8-one], the half-inhibitory concentration (IC50) is 1000 to 10000 nM.

`CNc1cc2nc3c(cnn13)C(=O)NCCCc1cc(cc(OC)c1)N2` [Compound 40, (1^3E,1^4E)-3^5-methoxy-1^7-(methylamino)-2,7-diaza-1(5,3)-pyrazolo[1,5-a]pyrimidina-3(1,3)-benzenacyclooctaphan-8-one] showed a concentration for half-maximal inhibition (IC50) of 1000 to 10000 nM.

`CNc1cc2nc3c(cnn13)C(=O)NCCOc1cncc(c1)N2` [Compound 41, (1^3E,1^4E)-1^7-(methylamino)-4-oxa-2,7-diaza-1(5,3)-pyrazolo[1,5-a]pyrimidina-3(3,5)-pyridinacyclooctaphan-8-one] had an IC50 of 1000 to 10000 nM.

Turning to `CNc1cc2nc3c(cnn13)C(=O)NCCc1cccc(n1)N2` [Compound 42, (1^3E,1^4E)-1^7-(methylamino)-2,6-diaza-1(5,3)-pyrazolo[1,5-a]pyrimidina-3(2,6)-pyridinacycloheptaphan-7-one], the concentration for half-maximal inhibition (IC50) was 1000 to 10000 nM.

Take `CNc1cc2nc3c(cnn13)C(=O)NCCCc1csc(n1)N2` [Compound 43, (1^2Z,3^3E,3^4E)-3^7-(methylamino)-2,5-diaza-1(2,4)-thiazola-3(5,3)-pyrazolo[1,5-a]pyrimidinacyclooctaphan-4-one]: the 50% inhibitory concentration (IC50) lay in the range of 1000 to 10000 nM.

Compound `CNc1cc2nc3c(cnn13)C(=O)NCCC(=O)c1cccc(c1)N2` [Compound 44, (1^3E,1^4E)-1^7-(methylamino)-2,7-diaza-1(5,3)-pyrazolo[1,5-a]pyrimidina-3(1,3)-benzenacyclooctaphane-4,8-dione] yielded an IC50 of 1000 to 10000 nM.

Compound `CNc1cc2nc3c(cnn13)C(=O)NCCCn1cc(cn1)N2` [Compound 45, (1^3E,1^4E,3^4E)-1^7-(methylamino)-31H-2,7-diaza-1(5,3)-pyrazolo[1,5-a]pyrimidina-3(4,1)-pyrazolacyclooctaphan-8-one] showed an IC50 of 1000 to 10000 nM.

Turning to `CNc1cc2nc3c(cnn13)C(=O)NCCCOc1ccc(F)cc1N2` [Compound 46, (1^3E,1^4E)-3^5-fluoro-1^7-(methylamino)-4-oxa-2,8-diaza-1(5,3)-pyrazolo[1,5-a]pyrimidina-3(1,2)-benzenacyclononaphan-9-one], the half-inhibitory concentration (IC50) is 1000 to 10000 nM.

With `CNc1cc2nc3c(cnn13)C(=O)NCCn1cc(cn1)N2` [Compound 47, (1^3E,1^4E,3^4E)-1^7-(methylamino)-31H-2,6-diaza-1(5,3)-pyrazolo[1,5-a]pyrimidina-3(4,1)-pyrazolacycloheptaphan-7-one], the 50% inhibitory concentration (IC50) lay in the range of 1000 to 10000 nM.

The values are drawn from US11780842B2, “TYK2 pseudokinase ligands” (Ventyx Biosciences, Inc., priority 2019, dated 2023).
